From US20150290105A1, “COMPOSITION COMPRISING SYRINGARESINOL FOR IMPROVING THE SKIN” (AMOREPACIFIC CORPORATION, priority 2011, published 2015)

Key:
[1] = Transepidermal water loss (TEWL) in hairless mouse; assay type: in vivo, hairless mice (SKH: HR-1); conditions: 3 weeks, FIG. 8
Protocol: 30-week-old female hairless mice (SKH: HR-1) weighing 25-39 g were purchased from Charles River Laboratories (Wilmington, Mass., USA). The mice were accustomed to the laboratory environment for a week and then grouped into normal groups and test substance-treated groups, with 5 mice per each group. The mice were allowed free access to water and feed under the condition of 12-hour light/dark cycles, 23.2° C. and 55.10% humidity. For the test substance-treated groups, a patch of 1% syringaresinol dissolved in a solvent (1,3-butylene glycol:ethanol=7:3) was applied 2 times for 2 days or 200 mg/kg syringaresinol was orally administered. The control groups were treated in the same way using the solvent of the same amount instead of syringaresinol. […] Before and after the UV radiation, skin wrinkles on the exposed part were taken with replica and measured using the Visiometer system (C+K). 3 weeks after the onset of experiment, transepidermal water loss (TEWL) was measured on the back part of the hairless mouse of each group using a wireless vapometer (Delfin Technologies, Ltd., SWL 4102). […] Transepidermal water loss is the quantity of water that passes from inside the body through the skin and a larger value means poor skin moisturization ability and damaged skin barrier function. […]

SIRT1 [2] = assay: SIRT1 expression promoting effect in human keratinocytes; assay type: cell-based; conditions: HaCaT cells, 20, 50 or 100 μM, 24 hours, FIG. 3
Protocol: (§1) Human keratinocyte HaCaT cells or human fibroblast HDF cells were cultured under the condition of 37° C. and 5% CO2 in DMEM ((Gibco 1210-0038)) containing 10% fetal bovine serum.
(§2) The cultured cells were treated with syringaresinol dissolved in DMSO at a concentration of 20, 50 or 100 μM for 24 hours. Separately from this, the cells were treated with DMSO of 1/1000 of the volume of the culture medium as a negative control. After treating with the test substance, the cells were washed twice with cold PBS and RNA was extracted using TRIzol reagent (Invitrogen). Then, cDNA was synthesized using 1 μg/μL of the extracted RNA and a reverse transcription system (Promega). The expression pattern of the SIRT1 and GAPDH genes was monitored using the synthesized cDNA and predesigned primers and probes (Applied Biosystems; SIRT1, Hs01009006_ml; GAPDH, Hs99999905_ml). PCR reaction and analysis were carried out using the Rotor-Gene 3000 system (Corbett Research, Sydney, Australia). The result is shown in FIG. 3 (keratinocytes) and FIG. 4 (fibroblasts).

SIRT1 [3] = assay: SIRT1 expression promoting effect in human fibroblasts; assay type: cell-based; conditions: HDF cells, 20, 50 or 100 μM, 24 hours, FIG. 4
Protocol: as §1, §2

collagen IV = assay: UV-induced collagen breakdown in human keratinocytes (western blot); assay type: cell-based; conditions: HaCaT cells, 50 μM, UVB 30 mJ/cm^2, FIG. 6
Protocol: (§3) Human keratinocyte HaCaT cells were cultured in substantially the same manner as in Test Example 10.
(§4) The cultured cells were treated with trypsin to obtain a single-cell suspension. Then, the cells were distributed in a 6-well plate, with 2×10^5 cells per well, and cultured for 24 hours. Subsequently, after replacing the medium with DMEM not containing fetal bovine serum and culturing again for 24 hours, the cells were treated with 50 μM syringaresinol dissolved in DMSO. After treating for 24 hours, the cells were washed with PBS and UVB of 30 mJ/cm^2 was irradiated in PBS. After discarding the PBS, the cells were added to a medium containing syringaresinol of the same concentration. As a control group, the cells were cultured in the same manner without treating with syringaresinol. […] Then, after centrifuging at 4° C. for 10 minutes with 15,000 g, the supernatant was recovered and protein was quantitated using Bio-Rad Protein Dye ReagentTM. […] Bands on the film were scanned with PowerLook 2100 XL (UMAX) and analyzed with the image-analyzing program ImageMaster 2D Elite (Amersham Bioscience).

[4] = Skin whitening effect when orally administered, UV-irradiated brown guinea pig; assay type: in vivo; conditions: 1% in feed, 5 weeks, oral
Protocol: Minimal erythemal dose was measured after irradiating UV to guinea pigs. After grouping the guinea pigs with 10 per each group, UV of the minimal erythemal dose was irradiated once a day, for a total of 3 times. The guinea pigs were allowed free access to feed for 5 weeks. The feed contained 1% syringaresinol or 1% vitamin C (Vit C) as a positive control. Skin pigmentation was measure using a colorimeter in substantially the same manner as in Test Example 6.

interleukin 6 gene = assay: Interleukin 6 gene expression in keratinocytes (Q-RT-PCR); assay type: cell-based; conditions: 24 hours, relative to non-treated control
Protocol: Interleukin 6 (IL-6) is a cytokine secreted by keratinocytes, etc. Increased secretion owing to activation of the IL-6 gene leads to bright skin color and skin tone and suppressed skin pigmentation such as melasma or blemish. It was investigated whether syringaresinol can increase the expression of the IL-6 gene in skin keratinocytes.
Keratinocytes were treated with 10 ppm or 100 ppm syringaresinol. 24 hours later, the cells were recovered and washed twice with 10 mL of PBS. Then, total RNA was isolated from the cells using TRIzol reagent (Invitrogen, Carlsbad, Calif., USA). The isolated RNA was purified once more using the Qiagen RNeasy kit (Qiagen, Valencia, Calif.) and cDNA was synthesized therefrom using the Superscript Reverse Transcriptase (RT) II kit (Invitrogen, Carlsbad, Calif.). Subsequently, the change in the expression of the interleukin 6 gene was quantitatively analyzed by real-time reverse transcription polymerase chain reaction (Q-RT-PCR). The change in the gene expression pattern was evaluated using the TaqMan gene expression assay kit (Applied Biosystems, Forster City, Calif.). Hs00174360_ml was used as a primer. The expression level of interleukin 6 in the cells was analyzed by real-time PCR and was calculated relative to a non-treated control group.

MMP-9 = assay: UV-induced MMP-9 expression in human keratinocytes (western blot); assay type: cell-based; conditions: HaCaT cells, 50 μM, UVB 30 mJ/cm^2, FIG. 6
Protocol: as §3, §4

COc1cc(C2OCC3C(c4cc(OC)c(O)c(OC)c4)OCC23)cc(OC)c1O (stereo not drawn) [Syringaresinol, syringaresinol]
UV-induced transepidermal water loss (TEWL) ([1]; application): decrease in UV-induced transepidermal water loss | UV-induced transepidermal water loss (TEWL) ([1]; oral administration): decrease in UV-induced transepidermal water loss | Increase of SIRT1 expression (SIRT1 [2]): ≥ 4 times | Increase of SIRT1 expression (SIRT1 [3]): ≥ 4 times | UV-induced collagen breakdown (collagen IV): inhibits collagen breakdown | Skin color brightness (ΔL*) [4]: 1.67 ± 0.25 | Expression of IL-6 gene (interleukin 6 gene; 10 ppm): 3.5 | Expression of IL-6 gene (interleukin 6 gene; 100 ppm): 8.2 | UV-induced MMP-9 expression (MMP-9): inhibiting the UV-induced increase of MMP-9 expression
